Experimental data as given in patent publication US20240207454A1, “NEURO-BEHAVIORAL ASSAY FOR PHYSIOLOGICAL EVALUATION OF WATER-SOLUBLE ANESTHETICS” (Northeastern University, priority 2022, published 2024).

System: Apteronotus leptorhynchus
Assay: Neuro-behavioral assay: EOD amplitude
Assay type: in vivo
Description: Differential recording of the fish's EOD was performed through a pair of stainless-steel electrodes built into the shelter tube (FIG. 1). During the experiment, the open ends of the tube were closed with a course plastic mesh netting to ensure that the fish remained close to the recording electrodes, thereby yielding high-quality recordings. This restraint is minimally invasive, as, particularly during daytime, the fish remain in shelter tubes with open ends for prolonged periods of time, often for several hours. The recorded EOD signal was amplified and digitized following a protocol established previously. To examine the effect of eugenol on EOD frequency and chirping behavior, the following experiments were conducted using 8 fish (FIG. 11): First, the baseline EOD was recorded in the fish's home tank (50 cm×30 cm×30 cm) for 30 min. Then, for the 5-min treatment session, the shelter tube with the fish was transferred to a smaller (experimental) tank (30 cm×20 cm×20 cm) containing either eugenol dissolved in aquarium water at a certain concentration (30 μL/L, 45 μL/L, or 60 μL/L; ‘test condition’) or aquarium water only (‘control condition’). The temperature in the experimental tank was similar to the temperature in the home tank (median difference: ±0.2° C.). Finally, the shelter tube with the fish was returned to the home tank, where recording continued for 180 min. Throughout the 215 min of pre-treatment, treatment, and post-treatment, the recording of the EOD was interrupted only for a few seconds during which the fish was transferred between its home tank and the experimental tank. The order of the four treatment conditions was determined using a randomized complete block design. Each test or control experiment in a given fish was conducted on a different day.

C=CCc1ccc(O)c(OC)c1 [eugenol]
Fish in which the EOD amplitude collapsed to markedly lower levels (60 μL/L eugenol, 5 min): 4 out of 8
Time after end of exposure at which EOD amplitude reached baseline levels (eugenol, FIG. 19 recording): approximately 6 min
Time after onset of anesthesia at which the fish's movements ceased (jittering of EOD amplitude minimal) (eugenol, FIG. 19 recording): Approximately 1.5 min
